Test results published in US6689767B2, “Triterpenes having antibacterial activity” (Regents of the University of Minnesota, priority 2000, dated 2004).
Converted amounts (≈) assume the structure as drawn.

Key:
Escherichia coli = assay: Kirby-Bauer disk diffusion growth inhibition, Escherichia coli; format: cell-based; settings: 10 mg/ml in DMSO, 100 μl on 10 mm disk, 18 hours 37° C.
How it was run: (§1)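 Bacteria grown 18 h at 37 °C in nutrient broth, 0.5 ml swabbed onto Mueller-Hinton agar; 10 mm disks loaded with 100 μl compound in DMSO or water (additional compounds at 10 mg/ml in DMSO). Inhibition zones measured after 18 h at 37 °C, in triplicate.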

Staphylococcus aureus = assay: Kirby-Bauer disk diffusion growth inhibition, Staphylococcus aureus; format: cell-based; settings: for Zone of inhibition Staphylococcus aureus: 100 μl on 10 mm disk, 18 hours 37° C.; for Active against: Table 1 summary, S. aureus; for effectiveness against S. aureus: Tables 1a and 1b
How it was run: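 S. aureus broth culture (18 h, 37 °C) spread on Mueller-Hinton agar; 10 mm disks carrying 100 μl compound solution in DMSO or water, one set at 10 mg/ml in DMSO. Inhibition zones measured after 18 h at 37 °C, in triplicate.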

Bacillus subtilis = assay: Kirby-Bauer disk diffusion growth inhibition, Bacillus subtilis; format: cell-based; settings: 10 mg/ml in DMSO, 100 μl on 10 mm disk, 18 hours 37° C.
How it was run: as §1

[1] = system: methicillin-resistant Staphylococcus aureus; assay: Growth inhibition of methicillin-resistant Staphylococcus aureus; format: cell-based
Method: The compounds disclosed herein were tested for growth inhibition against four strains of bacteria: Escherichia coli, Staphylococcus aureus, methicillin-resistant Staphylococcus aureus, and Bacillus subtilis. […] They represent […]. E. coli is a gram-negative, non-spore forming, rod-shaped, opportunistic pathogen that resides in the human digestive tract. S. aureus is a gram positive coccus, is usually found morphologically as a […], and is an opportunistic human pathogen, often residing on or in the skin. B. subtilis is a gram positive spore-forming rod. Its native environment is the soil. The chemicals were tested for growth-inhibition of the bacteria by the Kirby-Bauer method. See, e.g., Microbiology, third edition; Lansing M. Prescott, John P. Harley, and Donald A. Klein; Wm. C. Brown Publishers.
Mueller-Hinton agar (Difco Lab, Michigan) was prepared according to the manufacturer's directions, and 20 ml was dispensed in each sterile petri dish. Sterile nutrient broth (Difco Lab, Michigan) was also prepared according to the manufacturer's directions.
Bacteria were grown in liquid nutrient broth for 18 hours at 37° C. until they were turbid.
An aliquot of 0.5 ml of cultured bacteria was aseptically transferred to the surface of a Mueller-Hinton agar plat, and spread using a cotton-tipped swab. […]
The zones of inhibition were measured after 18 hours growth at 37° C. […]

S. aureus = assay: Minimum inhibitory concentration in tryptic soy broth, S. aureus; format: cell-based, Staphylococcus aureus; settings: 24 hours 37° C., turbidity
Method: (§2) Sterile tryptic soy broth was prepared according to the manufacturer's instructions (Difco Lab, Michigan). To each tube containing 7 ml of broth, test compounds dissolved in DMSO were added at different concentrations in triplicate. The tubes were incubated for 24 hours at 37° C. and then turbidity was measured using a […]. The colorimeter was calibrated with sterile broth. The MIC was the lowest concentration that could prevent an increase in turbidity.

[2] = system: methicillin resistant S. aureus; assay: Minimum inhibitory concentration in tryptic soy broth, methicillin resistant S. aureus; format: cell-based, Staphylococcus aureus; settings: 24 hours 37° C., turbidity
Method: as §2

bacteria = assay: Summary statements over the antibacterial assays above; format: cell-based; settings: summary list

Row | Structure (SMILES) | Zone of inhibition Escherichia coli (Escherichia coli) [mm] | Zone of inhibition Staphylococcus aureus (Staphylococcus aureus; 10 mg/ml in DMSO) [mm] | Active against (Staphylococcus aureus) | effectiveness against S. aureus (Staphylococcus aureus) | amount applied to the disk that inhibited S. aureus (Staphylococcus aureus; disk diffusion assay, laboratory strain (not methicillin resistant)) [ng] | effectiveness against S. aureus compared with streptomycin (Staphylococcus aureus; laboratory strain (not methicillin resistant)) | Zone of inhibition Bacillus subtilis (Bacillus subtilis) [mm] | effectiveness against methicillin resistant S. aureus [1] | Active against ([1]; Table 1 summary, S. aureus methicillin resistant) | minimum inhibitory concentration (S. aureus) [µM] | MIC [2] [µM] | sensitivity of S. aureus (Staphylococcus aureus; Example 34, 10 mg/ml in DMSO) | active against at least one strain of bacteria in the assays above (bacteria)
1 | C=C(C)[C@@H]1CC[C@]2(COC(=O)/C=C\C(=O)O)CC[C@]3(C)[C@H](CC[C@@H]4[C@@]5(C)CC[C@H](OC(=O)/C=C\C(=O)O)C(C)(C)[C@@H]5CC[C@]43C)[C@@H]12 [Betulin 3,28-dimaleate, Betulin-3,28-dimaleate] | 0 | 11.0 | S. aureus, | effective | 56 | more effective | 0 | effective | S. aureus methicillin | 2.3 (≈ 1.47 µg/mL) | 0.282 (≈ 0.18 µg/mL) | – | –
2 | C=C(C)[C@@H]1CC[C@]2(COC(=O)c3ccccc3C(=O)O)CC[C@]3(C)[C@H](CC[C@@H]4[C@@]5(C)CC[C@H](OC(=O)c6ccccc6C(=O)O)C(C)(C)[C@@H]5CC[C@]43C)[C@@H]12 [Betulin 3,28-diphthalate, Betulin-3,28-diphthalate] | 0 | 10.0 | S. aureus | effective | – | – | 0 | – | – | 2.3 (≈ 1.7 µg/mL) | – | sensitive | active against at least one strain of bacteria
